Changes are numbered by the printed parent chain.
Columns and labels:
Assay type in all cases: biochemical
[1] = biological target: T1, ALDH2 (Homo sapiens, UniProt P05091); experiment: ALDH2 activity with 20 μM of the compound (Table 3); details: 20 μM compound
T1 construct: His-tag (N); made in house; host or cells: E. coli BL21
T1 sequence (P05091 18-517): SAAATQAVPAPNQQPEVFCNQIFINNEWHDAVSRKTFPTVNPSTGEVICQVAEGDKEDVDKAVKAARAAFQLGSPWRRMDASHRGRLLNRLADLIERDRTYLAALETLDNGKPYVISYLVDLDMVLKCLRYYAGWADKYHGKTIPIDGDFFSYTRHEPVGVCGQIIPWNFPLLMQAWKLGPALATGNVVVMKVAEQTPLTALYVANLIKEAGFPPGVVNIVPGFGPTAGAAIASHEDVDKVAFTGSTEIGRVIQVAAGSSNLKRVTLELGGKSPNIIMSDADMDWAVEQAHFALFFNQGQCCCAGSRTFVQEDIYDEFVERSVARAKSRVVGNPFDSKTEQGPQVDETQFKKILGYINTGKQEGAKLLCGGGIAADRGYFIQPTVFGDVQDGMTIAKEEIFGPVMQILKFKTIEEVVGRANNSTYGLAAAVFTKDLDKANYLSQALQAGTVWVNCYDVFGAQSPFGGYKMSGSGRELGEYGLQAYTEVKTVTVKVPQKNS
Procedure: (§1) ALDH2 catalyzes the oxidative reaction of substrate acetaldehyde to acetic acid using NAD^+ as a cofactor. Enzymatic activity, or catalytic rate, of aldehyde dehydrogenase (ALDH2) are measured spectrophotometrically at UV wavelength λ340 nm by the accumulation of reduced product NADH derived from NAD^+. Absorbance at λ340 nm is quantitatively proportional to the amount of NADH being produced over time (6.22 O.D. unit=1 mmol of NADH, measured in a 1-cm width standard cuvette). This method is well-established in the literature [e.g. Rex et al., Alcohol Clin. Exp. Res. 9, 147 (1985)].
as §1, with “can be” for “are”
(§2) ALDH2 catalyzes the oxidative reaction of substrate acetaldehyde to acetic acid using NAD^+ as a cofactor. Enzymatic activity, or catalytic rate, of aldehyde dehydrogenase (ALDH2) can be measured spectrophotometrically at UV wavelength λ340 nm by the accumulation of reduced product NADH derived from NAD^+. Because compounds of formula (I) are considered to be agonists or “activators” of ALDH2 the enzymatic activity measured will exceed 100% of the baseline enzymatic activity of the enzyme in its normal activation state. As the concentration of the compounds of formula (I) decreases from 20 micromolar to 0.16 micromolar in the presence of ALDH, a decrease in the activation of enzymatic activity is observed for the wild-type ALDH2*1/*1 and the heterozygous form ALDH2*1/*2.

[2] = biological target: T2, ALDH2*1/*2 (Homo sapiens, UniProt P05091, E504K); experiment: ALDH2 enzymatic activity, NADH accumulation at 340 nm, acetaldehyde substrate, heterozygous form; details: relative to baseline enzymatic activity (100%); for activity at 2.5 µM: 2.5 μM compound; for activity at 5 µM: 5 μM compound; for activity at 10 µM: 10 μM compound; for activity at 20 µM: 20 μM compound
T2 construct: His-tag; made in house; host or cells: E. coli BL21 (pETDuet-1 co-expression)
T2 sequence (P05091 18-517): T1 sequence (P05091 18-517)
T2 sequence (P05091 18-517 E504K): T1 sequence (P05091 18-517) with E487K
Procedure: as §1
as §1, with “can be” for “are”
(§3) Cloning, expression and purification of human ALDH2 wild type and ALDH2*2 recombinant mutant enzymes: Full-length wild type human ALDH2 cDNA was purchased from ATCC (No. MGC-1806. GenBank ID: BC002967). The 18-amino acid mitochondria transport signal sequence was removed by PCR and cloned into the NheI/HindIII sites of a His-tag vector, pTrcHis, using standard molecular cloning techniques. The human ALDH2* cDNA construct containing the Asian E487K mutation was obtained by site-directed mutagenesis to create the E487K substitution of the wild type ALDH2. Both human clones were designed to express a recombinant protein with the His-tag at the N-terminus of the protein. For the co-expression experiments of human ALDH2 wild type and ALDH2*2 heterotetramers, a wild type ALDH2 gene and a ALDH2 E487K gene were inserted separately into the two multiple cloning sites of pETDuet-1 vector. (Novagen, CA, USA). All the vectors were transformed into BL21 E. coli host cells and subjected to 0.5 mM IPTG induction for protein expression at 30° C. Purifications of the recombinant proteins by affinity nickel columns (HisTrap, GE Healthy Science, USA) were carried out using standard protocols according to manufacturer's instructions (Novagen, USA).
as §2

[3] = biological target: T3, ALDH2*1/*1 (Homo sapiens, UniProt P05091); experiment: ALDH2 enzymatic activity, NADH accumulation at 340 nm, acetaldehyde substrate, wild type; details: relative to baseline enzymatic activity (100%); for activity at 2.5 µM: 2.5 μM compound; for activity at 5 µM: 5 μM compound; for activity at 10 µM: 10 μM compound; for activity at 20 µM: 20 μM compound
T3 construct: His-tag (N); made in house; host or cells: E. coli BL21 (pTrcHis vector)
T3 sequence (P05091 18-517): T1 sequence (P05091 18-517)
Procedure: as §1
as §1, with “can be” for “are”
as §3, §2

activity at 20 µM [1] | activity at 2.5 µM [2] | activity at 5 µM [2] | activity at 10 µM [2] | activity at 20 µM [2] | activity at 2.5 µM [3] | activity at 5 µM [3] | activity at 10 µM [3] | activity at 20 µM [3] | SMILES
> 250% | 323% | 420% | 419% | 410% | 293% | 315% | 379% | 364% | COc1ccc(CNC(=O)c2cc(-c3ccsc3CO)ccc2OCC2CC2)cc1F [AC27]
150 to 250% | 146% | 195% | 247% | 296% | 164% | 168% | 215% | 237% | COc1ccc(CNC(=O)c2cc(-c3c[n+]([O-])ccc3CO)ccc2OCC2CC2)cc1F [AC13]
> 250% | 260% | 349% | 392% | 423% | 283% | 334% | 422% | 445% | COc1ccc(CNC(=O)c2cc(-c3cscc3CO)ccc2OCC2CC2)cc1F [AC29]
100 to 150% | 104% | 116% | 126% | 138% | 106% | 106% | 105% | 133% | COc1ccc(CNC(=O)c2cc(-c3c(CO)cccc3N(C)C)ccc2OCC2CC2)cc1F [AC16]
> 250% | 201% | 239% | 338% | 456% | 197% | 252% | 366% | 430% | COc1ccc(CNC(=O)c2cc(-c3sccc3CO)ccc2OCC2CC2)cc1F [AC28]
150 to 250% | 103% | 121% | 157% | 194% | 134% | 138% | 162% | 189% | COc1ccc(CNC(=O)c2cc(-c3c(CO)ccc[n+]3[O-])ccc2OCC2CC2)cc1F [AC14, 2-(4-(cyclopropylmethoxy)-3-((3-fluoro-4-methoxybenzyl)carbamoyl)phenyl)-3-(hydroxymethyl)pyridine 1-oxide]
> 250% | 156% | 173% | 176% | 195% | 229% | 262% | 340% | 318% | COc1ccc(CNC(=O)c2cc(-c3cc(F)ccc3CO)ccc2OCC2CC2)cc1F [AC17]

The next lines start with the molecule.

SMILES | activity at 20 µM [1] | activity at 2.5 µM [2] | activity at 5 µM [2] | activity at 10 µM [2] | activity at 20 µM [2] | activity at 2.5 µM [3] | activity at 5 µM [3] | activity at 10 µM [3] | activity at 20 µM [3]
COc1ccc(CNC(=O)c2cc(-c3c(F)cccc3CO)cnc2OCC2CC2)cc1F [AC19] | > 250% | 133% | 163% | 191% | 230% | 132% | 143% | 214% | 236%
COc1ccc(CNC(=O)c2cc(-c3ccsc3CO)cnc2OCC2CC2)cc1F [AC25, 2-(cyclopropylmethoxy)-N-(3-fluoro-4-methoxybenzyl)-5-(2-(hydroxymethyl)thiophen-3-yl)nicotinamide] | > 250% | 267% | 321% | 343% | 260% | 273% | 341% | 422% | 382%
COc1ccc(CNC(=O)c2cc(-c3ncccc3CO)cnc2OCC2CC2)cc1F [AC8] | > 250% | 221% | 299% | 328% | 479% | 164% | 223% | 319% | 370%
COc1ccc(CNC(=O)c2cc(-c3c(CO)cccc3N(C)C)cnc2OCC2CC2)cc1F [AC15] | 150 to 250% | 105% | 129% | 160% | 203% | 124% | 106% | 143% | 169%
COc1ccc(CNC(=O)c2cc(-c3cccc(F)c3CO)ccc2OCC2CC2)cc1F [AC21] | > 250% | 110% | 198% | 247% | 250% | 161% | 209% | 272% | 370%
COc1ccc(CNC(=O)c2cc(-c3ccncc3CO)cnc2OCC2CC2)cc1F [AC12] | > 250% | 179% | 236% | 286% | 350% | 166% | 211% | 305% | 379%
COc1ccc(CNC(=O)c2cc(-c3sccc3CO)cnc2OCC2CC2)cc1F [AC26, 2-(cyclopropylmethoxy)-N-(3-fluoro-4-methoxybenzyl)-5-(3-(hydroxymethyl)thiophen-2-yl)nicotinamide] | > 250% | 188% | 238% | 261% | 281% | 199% | 235% | 352% | 394%
COc1ccc(CNC(=O)c2cc(-c3cccnc3CO)ccc2OCC2CC2)cc1F [AC7] | > 250% | 176% | 244% | 291% | 434% | 133% | 181% | 266% | 331%
